Drawing on US20100010219A1, “METHOD FOR PRODUCING PYRROLIDINE COMPOUND” (JAPAN TOBACCO INC., priority 2006, published 2010), this text covers IC50 for 27 compounds.

The test addresses T1, human HSD-1 (recombinant HSD-1) (Homo sapiens, UniProt P28845).
T1 construct: made in house
The test can be described thus: HSD-1 activity inhibitory action in vitro (SPA, conversion of cortisone to cortisol). Format: biochemical. The conditions noted are these: recombinant human HSD-1 expressed using baculovirus system; 10 nM 3H cortisone, 500 μM NADPH; room temperature 90 to 120 min; read-out: hHSD1 (IC50 (nM)).

Structures are written as SMILES. Structures can show the parent of a compound that is named as a salt.

T1 sequence (P28845 whole entry): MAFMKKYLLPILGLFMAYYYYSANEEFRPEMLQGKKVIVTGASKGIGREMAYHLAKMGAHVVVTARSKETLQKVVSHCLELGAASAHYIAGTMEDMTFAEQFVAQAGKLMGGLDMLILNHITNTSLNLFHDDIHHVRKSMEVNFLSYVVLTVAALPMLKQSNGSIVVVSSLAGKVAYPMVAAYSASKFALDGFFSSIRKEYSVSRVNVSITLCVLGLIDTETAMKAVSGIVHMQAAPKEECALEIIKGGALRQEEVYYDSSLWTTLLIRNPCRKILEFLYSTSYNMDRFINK

Turning to `CC(=O)N1CCN(C(=O)N2CCC(n3ncc(C(=O)N4CC[C@@H](c5ccccc5C(F)(F)F)C4)c3C3CC3)CC2)CC1` [Example 31, 1-{1-[1-(4-acetylpiperazine-1-carbonyl)piperidin-4-yl]-5-cyclopropyl-1H-pyrazole-4-carbonyl}-[(S)-3-(2-trifluoromethylphenyl)]pyrrolidine], the IC50 is under 30 nM.

For `CC(C)ONC(=O)N1CCC(n2ncc(C(=O)N3CCC(c4ccccc4C(F)(F)F)C3)c2C2(C)CC2)CC1` (stereo not drawn) [Example 146, 1-{1-[1-(isopropoxycarbamoyl)piperidin-4-yl]-5-(1-methylcyclopropyl)-1H-pyrazole-4-carbonyl}-3-(2-trifluoromethylphenyl)pyrrolidine], the half-inhibitory concentration (IC50) is under 30 nM.

For the compound `CC(=O)NCCC(=O)N1CCC(n2ncc(C(=O)N3CC[C@@H](c4ccccc4C(F)(F)F)C3)c2C2CC2)CC1` [Example 75, 1-{1-[1-(3-acetylaminopropionyl)piperidin-4-yl]-5-cyclopropyl-1H-pyrazole-4-carbonyl}-[(S)-3-(2-trifluoromethylphenyl)]pyrrolidine], the IC50 was under 30 nM. The figure for `CC(C)C[C@@H](CO)NC(=O)N1CCC(n2ncc(C(=O)N3CC[C@@H](c4ccccc4C(F)(F)F)C3)c2C2CC2)CC1` [Example 52, 1-(5-cyclopropyl-1-{1-[(S)-1-hydroxymethyl-3-methylbutylcarbamoyl]piperidin-4-yl}-1H-pyrazole-4-carbonyl)-[(S)-3-(2-trifluoromethylphenyl)]pyrrolidine] is under 30 nM; for `O=C(O)c1cccc(N2CCC(n3ncc(C(=O)N4CCC(c5ccccc5C(F)(F)F)C4)c3C3CC3)CC2)c1` (stereo not drawn) [Example 114, 3-(4-{5-cyclopropyl-4-[3-(2-trifluoromethylphenyl)pyrrolidine-1-carbonyl]pyrazol-1-yl}piperidin-1-yl)benzoic acid] it is under 30 nM; for `O=C(NCc1ccc(F)cc1)N1CCC(n2ncc(C(=O)N3CCC(c4ccccc4C(F)(F)F)C3)c2C2CC2)CC1` (stereo not drawn) [Example 147, 1-{5-cyclopropyl-1-[1-(4-fluorobenzylcarbamoyl)piperidin-4-yl]-1H-pyrazole-4-carbonyl}-3-(2-trifluoromethylphenyl)pyrrolidine] it is under 30 nM. The figure for `CC1(C)C(c2c(C(=O)N3CCC(c4cccnc4)C3)cnn2C2CCN(C(=O)Nc3ccccc3F)CC2)C1(C)C` (stereo not drawn) [Example 138, 1-{1-[1-(2-fluorophenylcarbamoyl)piperidin-4-yl]-5-(2,2,3,3-tetramethylcyclopropyl)-1H-pyrazole-4-carbonyl}-3-(pyridin-3-yl)pyrrolidine] is under 30 nM; for `O=C(c1cnn(C2CCN(C(=O)C3CC3)CC2)c1C1CC1)N1CC[C@@H](c2ccccc2C(F)(F)F)C1` [Example 64, 1-[1-(1-cyclopropanecarbonylpiperidin-4-yl)-5-cyclopropyl-1H-pyrazole-4-carbonyl]-[(S)-3-(2-trifluoromethylphenyl)]pyrrolidine] it is under 30 nM. With `C[C@@H]1CN(C(=O)c2cnn(C3CCN(c4ncccn4)CC3)c2C2(C)CC2)C[C@H]1c1ccccc1` (relative stereo) [Example 177, {(3S*,4R*)-3-methyl-1-{5-(1-methylcyclopropyl)-1-[1-(pyrimidin-2-yl)piperidin-4-yl]-1H-pyrazole-4-carbonyl}-4-phenylpyrrolidine hydrochloride], the IC50 was under 30 nM.

As for `CN1CCN(C(=O)N2CCC(n3ncc(C(=O)N4CC[C@@H](c5ccccc5C(F)(F)F)C4)c3C3CC3)CC2)CC1` [Example 29, 1-{5-cyclopropyl-1-[1-(4-methylpiperazine-1-carbonyl)piperidin-4-yl]-1H-pyrazole-4-carbonyl}-[(S)-3-(2-trifluoromethylphenyl)]pyrrolidine hydrochloride], the IC50 is under 30 nM. The same measure for `O=C(c1cnn(C2CCN(C(=O)N3CCC(O)CC3)CC2)c1C1CC1)N1CC[C@@H](c2ccccc2C(F)(F)F)C1` [Example 14, 1-{5-cyclopropyl-1-[1-(4-hydroxypiperidine-1-carbonyl)piperidin-4-yl]-1H-pyrazole-4-carbonyl}-[(S)-3-(2-trifluoromethylphenyl)]pyrrolidine]: under 30 nM; for `O=C(OC1CCNCC1)N1CCC(n2ncc(C(=O)N3CC[C@@H](c4ccccc4C(F)(F)F)C3)c2C2CC2)CC1` [Example 61, 1-{5-cyclopropyl-1-[1-(piperidin-4-yl-oxycarbonyl)piperidin-4-yl]-1H-pyrazole-4-carbonyl}-[(S)-3-(2-trifluoromethylphenyl)]pyrrolidine hydrochloride]: under 30 nM. The same measure for `CS(=O)(=O)NC(=O)N1CCC(n2ncc(C(=O)N3CC[C@@H](c4ccccc4C(F)(F)F)C3)c2C2CC2)CC1` [Example 56, 1-[5-cyclopropyl-1-(1-methanesulfonylaminocarbonylpiperidin-4-yl)-1H-pyrazole-4-carbonyl]-[(S)-3-(2-trifluoromethylphenyl)]pyrrolidine]: under 30 nM. The same measure for `CN1CCC(NC(=O)N2CCC(n3ncc(C(=O)N4CC[C@@H](c5ccccc5C(F)(F)F)C4)c3C3CC3)CC2)CC1` [Example 42, 1-{5-cyclopropyl-1-[1-(1-methylpiperidin-4-yl-carbamoyl)piperidin-4-yl]-1H-pyrazole-4-carbonyl}-[(S)-3-(2-trifluoromethylphenyl)]pyrrolidine hydrochloride]: under 30 nM; for `CN(C)C(=O)CN1CCC(n2ncc(C(=O)N3CC[C@@H](c4ccccc4C(F)(F)F)C3)c2C2CC2)CC1` [Example 100, 1-[5-cyclopropyl-1-(1-dimethylcarbamoylmethylpiperidin-4-yl)-1H-pyrazole-4-carbonyl]-[(S)-3-(2-trifluoromethylphenyl)]pyrrolidine hydrochloride]: under 30 nM. `Nc1ccc(N2CCC(n3ncc(C(=O)N4CCC(c5ccccc5C(F)(F)F)C4)c3C3CC3)CC2)cc1` (stereo not drawn) [Example 168, 1-{1-[1-(4-aminophenyl)piperidin-4-yl]-5-cyclopropyl-1H-pyrazole-4-carbonyl}-3-(2-trifluoromethylphenyl)pyrrolidine]: the IC50 is under 30 nM. The figure for `CN(C)CC(=O)N1CCC(n2ncc(C(=O)N3CC[C@@H](c4ccccc4C(F)(F)F)C3)c2C2CC2)CC1` [Example 67, 1-{5-cyclopropyl-1-[1-(2-dimethylaminoacetyl)piperidin-4-yl]-1H-pyrazole-4-carbonyl}-[(S)-3-(2-trifluoromethylphenyl)]pyrrolidine hydrochloride] is under 30 nM; for `O=C(c1cnn(C2CCN(c3cnccn3)CC2)c1C1CC1)N1CC[C@@H](c2ccccc2C(F)(F)F)C1` [Example 129, 1-[5-cyclopropyl-1-(1-pyrazin-2-ylpiperidin-4-yl)-1H-pyrazole-4-carbonyl]-[(S)-3-(2-trifluoromethylphenyl)]pyrrolidine hydrochloride] it is under 30 nM. The figure for `COc1ccnc(N2CCC(n3ncc(C(=O)N4CCC(CO)(c5ccccc5)C4)c3C3(C)CC3)CC2)n1` (stereo not drawn) [Example 185, 3-hydroxymethyl-1-{1-[1-(4-methoxypyrimidin-2-yl)piperidin-4-yl]-5-(1-methylcyclopropyl)-1H-pyrazole-4-carbonyl}-3-phenylpyrrolidine hydrochloride] is under 30 nM. On to `O=C(NCCO)N1CCC(n2ncc(C(=O)N3CC[C@@H](c4ccccc4C(F)(F)F)C3)c2C2CC2)CC1` [Example 8, 1-{5-cyclopropyl-1-[1-(2-hydroxyethylcarbamoyl)piperidin-4-yl]-1H-pyrazole-4-carbonyl}-[(S)-3-(2-trifluoromethylphenyl)]pyrrolidine], for which the IC50 was under 30 nM. The same measure for `N#Cc1ccccc1C1CCN(C(=O)c2cnn(C3CCN(C(=O)Nc4ccccc4F)CC3)c2C2CC2)C1` (stereo not drawn) [Example 184, 3-(2-cyanophenyl)-1-{5-cyclopropyl-1-[1-(2-fluorophenylcarbamoyl)piperidin-4-yl]-1H-pyrazole-4-carbonyl}pyrrolidine]: under 30 nM; for `CC1(c2c(C(=O)N3CCC(c4cccnc4)C3)cnn2C2CCN(C(=O)N3CCOc4ccccc43)CC2)CC1` (stereo not drawn) [Example 149]: under 30 nM; for `CC(=O)N1CCC[C@H]1C(=O)N1CCC(n2ncc(C(=O)N3CC[C@@H](c4ccccc4C(F)(F)F)C3)c2C2CC2)CC1` [Example 89, 1-(1-{1-[(S)-1-acetylpyrrolidine-2-carbonyl]piperidin-4-yl}-5-cyclopropyl-1H-pyrazole-4-carbonyl)-[(S)-3-(2-trifluoromethylphenyl)]pyrrolidine]: under 30 nM. `C[C@@H](CO)NC(=O)N1CCC(n2ncc(C(=O)N3CC[C@@H](c4ccccc4C(F)(F)F)C3)c2C2CC2)CC1` [Example 23, 1-(5-cyclopropyl-1-{1-[(S)-2-hydroxy-1-methylethylcarbamoyl]piperidin-4-yl}-1H-pyrazole-4-carbonyl)-[(S)-3-(2-trifluoromethylphenyl)]pyrrolidine]: the IC50 is under 30 nM. The figure for `O=C(c1cnn(C2CCN(c3ncccc3Cl)CC2)c1C1CC1)N1CCC(c2cccnc2)C1` (stereo not drawn) [Example 187, 1-{1-[1-(3-chloropyridin-2-yl)piperidin-4-yl]-5-cyclopropyl-1H-pyrazole-4-carbonyl}-3-(pyridin-3-yl)pyrrolidine] is under 30 nM; for `NCC(=O)N1CCC(n2ncc(C(=O)N3CC[C@@H](c4ccccc4C(F)(F)F)C3)c2C2CC2)CC1` [Example 77, 1-{1-[1-(2-aminoacetyl)piperidin-4-yl]-5-cyclopropyl-1H-pyrazole-4-carbonyl}-[(S)-3-(2-trifluoromethylphenyl)]pyrrolidine hydrochloride] it is under 30 nM; for `O=C(c1cnn(C2CCN(S(=O)(=O)C(F)(F)F)CC2)c1C1CC1)N1CC[C@@H](c2ccccc2C(F)(F)F)C1` [Example 108, 1-[5-cyclopropyl-1-(1-trifluoromethanesulfonylpiperidin-4-yl)-1H-pyrazole-4-carbonyl]-[(S)-3-(2-trifluoromethylphenyl)]pyrrolidine] it is under 30 nM.
